Measurements: PubChem BioAssay (NCI)
Several values for one entry are separate records, joined by “and”; a condition that tells them apart may be missing. Identical values can stand only once.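 Exposure lasted 48 hours, with cells grown in 96-well plates and compounds tested at five concentrations. GI50 is the concentration that inhibits growth by half. TGI: concentration producing complete growth inhibition.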

Columns and labels:
Assay in all cases: growth of human tumour cells (NCI), 48 h
[1] = system: UO-31 renal
[2] = system: HCT-116 colon
[3] = system: MDA-MB-435
[4] = system: MDA-MB-231 breast
[5] = system: KM12 colon
[6] = system: OVCAR-4 ovarian
[7] = system: ACHN renal
[8] = system: BT-549 breast
[9] = system: SNB-19 CNS
[10] = system: MCF7 breast

## COc1cc2c3cc1Oc1c(OC)c(OC)cc4c1C(Cc1ccc(O)c(c1)Oc1ccc(cc1)CC3N(C)CC2)N(C)CC4 (stereo not drawn)
[1]
  GI50: 13.9 µM
  TGI: 35.7 µM and 31.9 µM
[2]
  GI50: 5.56 µM
  TGI: > 100 µM and 49.5 µM
[3]
  GI50: 6.7 µM
  TGI: 19.8 µM
[4]
  GI50: 5.21 µM
  TGI: > 100 µM and 21.9 µM
[5]
  GI50: 14.2 µM
  TGI: 65.8 µM and 31.8 µM
[6]
  GI50: 15.3 µM
  TGI: > 100 µM and 50.7 µM
[7]
  GI50: 12.7 µM
  TGI: 34.9 µM and 44.1 µM
[8]
  GI50: 14.7 µM
  TGI: 60.1 µM and 35.6 µM
[9]
  GI50: 31.5 µM
  TGI: 65.8 µM and > 100 µM
[10]
  GI50: 11.5 µM
  TGI: > 100 µM and 66.8 µM

## Cc1ccc(C2CC(c3ccc(Nc4ccnc5cc(Cl)ccc45)cc3)=NN2C=O)cc1 (stereo not drawn)
[1]
  GI50: 5.49 µM
  TGI: > 100 µM
[2]
  GI50: 25.2 µM
  TGI: > 100 µM
[3]
  GI50: 1.95 µM
  TGI: > 100 µM
[4]
  GI50: 6.09 µM
  TGI: > 100 µM
[5]
  GI50: 6.64 µM
  TGI: > 100 µM
[6]
  GI50: 5.15 µM
  TGI: > 100 µM
[7]
  GI50: 3.27 µM
  TGI: > 100 µM
[8]
  GI50: 5.64 µM
  TGI: > 100 µM
[9]
  GI50: > 100 µM
  TGI: > 100 µM
[10]
  GI50: 8.39 µM
  TGI: > 100 µM

## COc1ccc2c(c1OC)O/C(=C\c1ncc([N+](=O)[O-])n1C)C2=O
[1]
  GI50: 0.957 µM
  TGI: 4.39 µM
[2]
  GI50: 0.455 µM
  TGI: 3.68 µM
[3]
  GI50: 0.277 µM
  TGI: 1.11 µM
[4]
  GI50: 1.37 µM
  TGI: 5.32 µM
[5]
  GI50: 2.79 µM
  TGI: 10.3 µM
[6]
  GI50: 5.95 µM
  TGI: > 75.2 µM
[7]
  GI50: 0.342 µM
  TGI: 1.46 µM
[8]
  GI50: 1.77 µM
  TGI: 4.46 µM
[9]
  GI50: 3.69 µM
  TGI: 23.1 µM
[10]
  GI50: 2.06 µM
  TGI: > 27.8 µM

## CN1CC[C@H](c2c(O)cc(O)c3c(=O)cc(-c4ccccc4Cl)oc23)[C@H](O)C1
[1]
  GI50: 0.0662 µM
  TGI: > 10 µM
[2]
  GI50: 0.0123 µM
  TGI: > 10 µM
[3]
  GI50: 0.0712 µM
  TGI: 0.26 µM
[4]
  GI50: 0.23 µM
  TGI: > 10 µM
[5]
  TGI: > 10 µM
[6]
  GI50: 0.14 µM
  TGI: 1.54 µM
[7]
  GI50: 0.0316 µM
  TGI: > 10 µM
[8]
  GI50: 0.0807 µM
  TGI: 0.599 µM
[9]
  GI50: 0.0647 µM
  TGI: > 10 µM
[10]
  GI50: 0.028 µM
  TGI: > 10 µM

## OCCN(CO)CO
[1]
  TGI: > 100 µM
[2]
  TGI: > 100 µM
[3]
  TGI: > 100 µM
[4]
  TGI: > 100 µM
[5]
  TGI: > 100 µM
[6]
  TGI: > 100 µM
[7]
  TGI: > 100 µM
[8]
  TGI: > 100 µM
[9]
  TGI: > 100 µM
[10]
  TGI: > 100 µM

## CSC1=Nc2c(c(C)c(-c3ccccc3)n2COC(CO)CO)C2=NC(=O)CC(C)N12 (stereo not drawn)
[1]
  GI50: > 100 µM
  TGI: > 100 µM
[2]
  GI50: > 100 µM
  TGI: > 100 µM
[3]
  GI50: > 100 µM
  TGI: > 100 µM
[4]
  GI50: > 100 µM
  TGI: > 100 µM
[5]
  GI50: > 100 µM
  TGI: > 100 µM
[6]
  GI50: > 100 µM
  TGI: > 100 µM
[7]
  GI50: > 100 µM
  TGI: > 100 µM
[8]
  GI50: > 100 µM
  TGI: > 100 µM
[9]
  GI50: > 100 µM
  TGI: > 100 µM
[10]
  GI50: > 100 µM
  TGI: > 100 µM

## Cc1cc(S(N)(=O)=O)c(S/C(=N\NS(=O)(=O)c2ccccc2)c2ccc(Cl)cc2)cc1Cl
[1]
  GI50: > 100 µM
  TGI: > 100 µM
[2]
  GI50: 77 µM
  TGI: > 100 µM
[3]
  GI50: > 100 µM
  TGI: > 100 µM
[4]
  GI50: > 100 µM
  TGI: > 100 µM
[5]
  GI50: > 100 µM
  TGI: > 100 µM
[6]
  GI50: > 100 µM
  TGI: > 100 µM
[7]
  GI50: > 100 µM
  TGI: > 100 µM
[8]
  GI50: > 100 µM
  TGI: > 100 µM
[9]
  GI50: > 100 µM
  TGI: > 100 µM
[10]
  GI50: 75.3 µM
  TGI: > 100 µM

## COc1ccccc1NC(=O)C1=C(C)NC(C)=C(C(=O)Nc2ccccc2OC)C1c1ccco1
[1]
  TGI: > 83.5 µM
[2]
  TGI: 37.4 µM
[3]
  TGI: 19.8 µM
[4]
  TGI: > 100 µM
[5]
  TGI: > 38.4 µM
[6]
  TGI: 88.2 µM
[7]
  TGI: > 100 µM
[8]
  TGI: > 100 µM
[9]
  TGI: 67.6 µM
[10]
  TGI: > 100 µM

## COc1ccc2c(c1)C(=O)c1c-2c(OCCN(C)C)nc2cc(OC)c(OC)cc12
[1]
  GI50: 0.658 µM
  TGI: 9.37 µM
[2]
  GI50: 1.08 µM
  TGI: 19.6 µM
[3]
  GI50: 5.3 µM
  TGI: > 100 µM
[4]
  GI50: 10.1 µM
  TGI: 22.1 µM
[5]
  GI50: 0.762 µM
  TGI: 13.4 µM
[6]
  GI50: 2.81 µM
  TGI: > 100 µM
[7]
  GI50: 5.21 µM
  TGI: 19.3 µM
[8]
  GI50: 26.5 µM
  TGI: > 100 µM
[9]
  GI50: 2.28 µM
  TGI: 31.5 µM
[10]
  GI50: 0.271 µM
  TGI: 14.9 µM

## CCn1c(-c2nonc2N)nc2cnc(Oc3cccc(NC(=O)c4ccc(N(C)C)cc4)c3)cc21
[1]
  GI50: 0.0235 µM
  TGI: > 18.8 µM
[2]
  GI50: 11.3 µM
  TGI: > 25 µM
[3]
  GI50: > 25 µM
  TGI: > 25 µM
[4]
  GI50: > 17 µM
  TGI: > 25 µM
[5]
  GI50: > 25 µM
  TGI: > 25 µM
[6]
  GI50: > 25 µM
  TGI: > 25 µM
[7]
  GI50: > 25 µM
  TGI: > 25 µM
[8]
  GI50: 0.859 µM
  TGI: > 25 µM
[9]
  GI50: > 25 µM
  TGI: > 25 µM
[10]
  GI50: > 25 µM
  TGI: > 25 µM

## COc1cc(NC2CCCCC2O)c2nc(-c3ccc(Cl)cc3)ccc2c1 (stereo not drawn)
[1]
  GI50: 6.31 µM
  TGI: 88.5 µM
[2]
  GI50: 12.9 µM
  TGI: > 100 µM
[3]
  GI50: 4.22 µM
  TGI: 16.6 µM
[4]
  GI50: 4.43 µM
  TGI: 57.8 µM
[5]
  GI50: 3.82 µM
  TGI: 29.2 µM
[6]
  GI50: 10.1 µM
  TGI: > 100 µM
[7]
  GI50: 8.94 µM
  TGI: > 100 µM
[8]
  GI50: 40.7 µM
  TGI: > 100 µM
[9]
  GI50: 21.7 µM
  TGI: > 100 µM
[10]
  GI50: 0.358 µM
  TGI: 35.5 µM

## COc1ccc(-c2c(N)noc2-c2cc(OC)c3c(c2)OCCO3)cc1
[1]
  GI50: < 0.024 µM
  TGI: 56.9 µM
[2]
  GI50: < 0.01 µM
  TGI: 6.37 µM
[3]
  GI50: < 0.01 µM
  TGI: 0.0102 µM
[4]
  GI50: 0.0851 µM
  TGI: > 43.3 µM
[5]
  GI50: < 0.01 µM
  TGI: 3.8 µM
[6]
  GI50: 0.0847 µM
  TGI: > 100 µM
[7]
  GI50: 0.131 µM
  TGI: > 100 µM
[8]
  GI50: 0.0285 µM
  TGI: 1.35 µM
[9]
  GI50: 0.0277 µM
  TGI: > 100 µM
[10]
  GI50: < 0.01 µM
  TGI: > 100 µM

## Cc1cc(NN=C(c2ccc(O)cc2)c2ccc(O)cc2)c([N+](=O)[O-])cc1[N+](=O)[O-]
[1]
  GI50: 4.02 µM
  TGI: 23.7 µM
[2]
  GI50: 3.73 µM
  TGI: 35.7 µM
[3]
  GI50: 3.46 µM
  TGI: 14.4 µM
[4]
  GI50: 4.7 µM
  TGI: 20.7 µM
[5]
  GI50: 4.6 µM
  TGI: 24 µM
[6]
  GI50: 6.38 µM
  TGI: > 100 µM
[7]
  GI50: 4.08 µM
  TGI: > 100 µM
[8]
  GI50: 11.4 µM
  TGI: 35.5 µM
[9]
  TGI: 0.935 µM
[10]
  GI50: 2.93 µM
  TGI: 20.4 µM
